Earlier results on 1 compound are cited in US20110118243A1, “ANTI-INFLAMMATORY DRUG DELIVERY SYSTEM” (priority 2008, published 2011).

Structures are written as SMILES.

The conditions of this series: in horses.

With `CCCCC1C(=O)N(c2ccccc2)N(c2ccccc2)C1=O` [phenylbutazone, 4-butyl-diphenyl-3,5-pyrazoidinedione], the Plasma half-life is 5 to 6 h.
